Measurements reported in US20060258007A1, “Regulated vectors for selection of cells exhibiting desired phenotypes” (priority 2005, published 2006).

System: cells expressing the HSV-TK gene product
Assay: Negative selection of pIRES-MAB-TK cultures with ganciclovir
Format: cell-based, Chinese Hamster
Settings: 5 days in the presence of ganciclovir, then an additional 10 days in growth media alone
Description: For example, pIRES-MAB-TK cultures are grown for 5 days in the presence of the prodrug ganciclovir (Sigma), which kills cells expressing the HSV-TK gene product. After 5 days of negative selection, cells are grown for an additional 10 days in growth media alone at which time greater than 95% of cells die off. Resistant clones are then picked and expanded in 10 cm petri dishes. Cells are grown for 3 weeks, after which time a portion is reanalyzed for recombinant protein expression, for example, by western blot, RT-PCR, and/or PCR. DNA is analyzed for the presence of the pIRES-pro-TK or pIRES-MAB-TK vector by PCR using any set of primers that can specifically detect the presence or absence of the pIRES vector, for example, according to methods as previously described in Grasso et al. (1998).

## Nc1nc(O)c2ncn(COC(CO)CO)c2n1 [ganciclovir]
  cells die off: greater than 95%
